Source: patent US6921770B2 (priority 2000, dated 2005)
Like-named read-outs stand apart in the source and are kept apart here.

Key:
[1] = system: rice blast fungi; format: in vivo, Pyricularia grisea
[2] = system: Pyricularia grisea; format: in vivo
[3] = system: rice blast fungi; format: cell-based, Magnaporthe grisea
[4] = system: rice blast fungi; format: cell-based, Magnaporthe grisea; remark: listed apart in the source
[5] = system: Sprague-Dawley rats; conditions: rat, in vivo
[6] = system: Oryzias latipes; conditions: in vivo
[7] = system: Salmonella typhimurium TA100 and TA98

Compound | Inhibiting Ratio (%) (at 250 ppm) [1] | controlling effect on rice blast ([2]; 2 ppm) [%] | controlling effect on rice blast ([2]; 10 ppm) [%] | controlling effect on rice blast ([2]; 100 ppm) [%] | further results
2-(3-trifluoromethoxyphenylimino)-3-methyl-4-[N-methoxyphenyl)carbamoylmethyl]-1,3-thiazol-4-ine [Compound 339] | 98 | 80 | 95 | 96 | 
Br.Cn1c(CC(=O)Nc2ccccc2)csc1=Nc1cc(Cl)cc(Cl)c1 [Compound 5, 2-(3,5-dichlorophenylimino)-3-methyl-4-(N-phenylcarbamoylmethyl)-1,3-thiazol-4-ine hydrobromide] | 100 |  |  |  | color of the medium ([3]; 5 μg/ml): white; concentration at which the accumulation of melanin in the appressorium is inhibited [4]: above 10 μg/ml
Br.Cn1c(CC(=O)Nc2ccccc2)csc1=Nc1ccc(F)cc1F [Compound 27, 2-(2,4-difluorophenylimino)-3-methyl-4-(N-phenylcarbamoylmethyl)-1,3-thiazol-4-ine hydrobromide] | 98 | 80 | 91 | 98 | 
Br.Cc1ccc(NC(=O)Cc2csc(=Nc3ccc(F)cc3F)n2C)cc1 [Compound 31, 2-(2,4-difluorophenylimino)-3-methyl-4-[N-(4-methylphenyl)carbamoylmethyl]-1,3-thiazol-4-ine hydrobromide] | 100 | 80 | 91 | 100 | 
Cl.Cn1c(CC(=O)Nc2ccc(Cl)cc2)csc1=Nc1ccc(C#N)cc1 [Compound 128, 2-(4-cyanophenylimino)-3-methyl-4-[N-(4-chlorophenyl)carbamoylmethyl]-1,3-thiazol-4-ine hydrochloride] | 98 | 85 | 100 | 100 | 
Cl.Cn1c(CC(=O)Nc2ccccc2F)csc1=Nc1ccc(Br)cc1 [Compound 152, 2-(4-bromophenylimino)-3-methyl-4-[N-(2-fluorophenyl)carbamoylmethyl]-1,3-thiazol-4-ine hydrochloride] | 100 | 70 | 85 | 99 | 
CCCCc1ccc(N=c2scc(CC(=O)Nc3ccc(OC)cc3)n2C)cc1.Cl [Compound 197, 2-[4-(n-butyl)phenylimino]-3-methyl-4-[N-(4-methoxyphenyl)carbamoylmethyl]-1,3-thiazol-4-ine hydrochloride] | 95 | 83 | 98 | 95 | 
COc1ccc(NC(=O)Cc2csc(=Nc3cccc(Br)c3)n2C)cc1.Cl [Compound 201, 2-(3-bromophenylimino)-3-methyl-4-[N-(4-methoxyphenyl)carbamoylmethyl]-1,3-thiazol-4-ine hydrochloride] | 97 | 87 | 99 | 97 | 
COc1ccc(NC(=O)Cc2csc(=Nc3ccc(F)c(Cl)c3)n2C)cc1.Cl [Compound 202, 2-(3-chloro-4-fluorophenylimino)-3-methyl-4-[N-(4-methoxyphenyl)carbamoylmethyl]-1,3-thiazol-4-ine hydrochloride] | 95 | 93 | 98 | 95 | 
COc1ccc(NC(=O)Cc2csc(=Nc3cccc(F)c3)n2C)cc1.Cl [Compound 203, 2-(3-fluorophenylimino)-3-methyl-4-[N-(4-methoxyphenyl)carbamoylmethyl]-1,3-thiazol-4-ine hydrochloride] | 93 | 93 | 99 | 93 | 
COc1ccc(NC(=O)Cc2csc(=Nc3ccccc3F)n2C)cc1.Cl [Compound 204, 2-(2-fluorophenylimino)-3-methyl-4-[N-(4-methoxyphenyl)carbamoylmethyl]-1,3-thiazol-4-ine hydrochloride] | 97 | 83 | 95 | 97 | body weight [5]: Normal weight gain; dead animals [5]: not observed; general symptoms [5]: Any abnormal observations were made; postmortem examination [5]: does not show any abnormal conservation; minimal lethal dose ([5]; po): higher than 2500 mg/kg; Accumulated number of dead animals [6]: 0; acute toxicity value [6]: > 100 mg/L; bacterial reverse mutation [7]: does not cause bacterial reverse mutation; colony number in the group treated with the test material [7]: less than twice of that in the negative control group
COc1ccc(NC(=O)Cc2csc(=Nc3ccc(C(F)(F)F)cc3)n2C)cc1.Cl [Compound 205, 2-(4-trifluoromethylphenylimino)-3-methyl-4-[N-(4-methoxyphenyl)carbamoylmethyl]-1,3-thiazol-4-ine hydrochloride] | 97 | 93 | 98 | 97 | 
COc1ccc(NC(=O)Cc2csc(=Nc3ccc(F)cc3F)n2C)cc1.Cl [Compound 206, 2-(2,4-difluorophenylimino)-3-methyl-4-[N-(4-methoxyphenyl)carbamoylmethyl]-1,3-thiazol-4-ine hydrochloride] | 93 | 93 | 97 | 93 | 
CCCCc1ccc(N=c2scc(CC(=O)Nc3ccc(C)c(Cl)c3)n2C)cc1.Cl [Compound 234, 2-[4-(n-butyl)phenylimino]-3-methyl-4-(N-[3-chloro-4-methylphenyl)carbamoylmethyl]-4-thiazoline hydrochloride] | 97 | 75 | 92 | 97 | 
Br.COc1ccc(NC(=O)Cc2csc(=Nc3ccc(C#N)cc3)n2C)cc1 [Compound 323, 2-(4-cyanophenylimino)-3-methyl-4-[N-(4-methoxyphenyl)carbamoylmethyl]-1,3-thiazol-4-ine hydrobromide] | 97 | 75 | 100 | 100 | 
COc1ccc(NC(=O)Cc2csc(=Nc3cccc(Br)c3)n2C)cc1 [Compound 335, 2-(3-bromophenylimino)-3-methyl-4-[N-(methoxyphenyl)carbamoylmethyl]-1,3-thiazol-4-ine] | 99 | 72 | 95 | 94 | 
COc1ccc(NC(=O)Cc2csc(=Nc3ccc(C#N)cc3)n2C)cc1F.Cl [Compound 344, 2-(4-cyanophenylimino)-3-methyl-4-[N-(3-fluoro-4-methoxyphenyl)carbamoylmethyl]-1,3-thiazol-4-ine hydrochloride] |  | 83 | 97 | 98 | 
CCc1ccc(NC(=O)Cc2csc(=Nc3ccc(C#N)cc3)n2C)cc1.Cl [Compound 345, 2-(4-cyanophenylimino)-3-methyl-4-[N-(4-ethylphenyl)carbamoylmethyl]-1,3-thiazol-4-ine hydrochloride] |  |  |  |  | controlling effect on rice blast ([2]; 2 ppm, hydrochloride): 70%; controlling effect on rice blast ([2]; 10 ppm, hydrochloride): 94%; controlling effect on rice blast ([2]; 100 ppm, hydrochloride): 97%
CCc1ccc(NC(=O)Cc2csc(=Nc3ccc(C(F)(F)F)cc3)n2C)cc1.Cl [Compound 346, 2-(4-trifluoromethylphenylimino)-3-methyl-4-[N-(4-ethylphenyl)carbamoylmethyl]-1,3-thiazol-4-ine hydrochloride] |  | 79 | 96 | 99 | 
Cc1cccc2sc3nncn3c12 [tricyclazole, reference compound] |  |  |  |  | color of the medium [3]: red
